Measurements reported in patent publication US20240208963A1, “CRYSTALLINE MELANOCORTIN SUBTYPE-2 RECEPTOR (MC2R) ANTAGONIST” (Crinetics Pharmaceuticals, Inc., priority 2022, published 2024).
Like-named read-outs stand apart in the source and are kept apart here.

Assays:
[1] = Solubility of solid state forms in solvents (gravimetric or solvent addition); format: physicochemical; conditions: for solubility: thermodynamic from solid, read-out: Solubility
Experimental: The solubility of certain solid state forms of Compound I was determined in various solvents by either gravimetric solubility or solvent addition.
About 25 mg of compound was weighed into vials. Approximately 5 vol. (0.125 mL) of solvent was added to the solids and the mixtures stirred at the designated temperature (RT or 50° C.). Solutions were noted and an additional 0.125 mL of solvent was added to the slurries. […] If a thicker slurry was noted, 0.25 mL of solvent was added (total volume 0.5 mL). If a thick slurry was again noted, an additional 0.25 mL of solvent was added (total volume 0.75 mL). After stirring for 2 days, the slurries were centrifuged, the supernatant was collected into preweighed vials, and the solvent evaporated at 50° C. (ambient pressure) without stirring. The vials containing the solid residues were dried in a vacuum oven at 50 C, 10^−2-10^−1 Torr, for 3 h before weighing again to determine the mass of solid that was dissolved in the supernatant (i.e. mg solid/mL solvent).
About 20 mg of compound was weighed into vials. Solvent was added in aliquots and stirred at the designated temperature until complete dissolution was observed. This measurement gave a solubility range.

[2] = Stability of crystalline forms at 40° C. and 75% relative humidity (XRPD, HPLC purity); conditions: for Change by XRPD after storage / Degradation by HPLC purity analysis after storage: 40° C., 75% relative humidity
Experimental: Approximately 10 mg of the Crystalline Pattern D of Compound I Maleate, 20 mg of the Crystalline Pattern C of Compound I Maleate, and 10 mg of the Crystalline Pattern E of Compound I Mandelate were weighed into open 4 mL vials that were placed into a 20 mL vial containing a saturated NaCl solution. The vial was sealed and kept at 40° C. for 7 days, creating an atmosphere at 75% relative humidity in the system. After 7 days, the materials were sampled and plated for XRPD analysis.
The stability test was repeated on Patterns C and D of Compound I Maleate for 11 days.

[3] = Salt screening XRPD stages: drying and overnight humidity exposure; conditions: >95% relative humidity overnight
Experimental: XRPD analysis is typically done in three stages: 1) Wet: XRPD of the wet cake is done for all samples whenever solids appropriate for sampling were observed. 2) Dry: Unique solids are then left on XRPD plates and dried under vacuum at 50° C. for at least 3 h. XRPD of unique dry solids are then collected. 3) Humid: Solids are then exposed to >95% relative humidity overnight and XRPD on resulting solids is collected. The humid environment is generated by placing a beaker of saturated potassium sulfate in water in a sealed container. This procedure is not carried out for any amorphous solids obtained. All XRPD patterns are compared to counter ion XRPD patterns and known free molecule patterns.
A qualitive humidity exposure test was performed by exposing approximately 10 mg of the maleate to 80% RH overnight.

[4] = Form stability at ambient conditions for one week (XRPD); format: physicochemical; conditions: listed as Pattern C, maleate
Source text: Some of the samples generated in the antisolvent crystallization experiments were mixtures of Pattern B, Pattern C, and Pattern D. These samples were left at ambient conditions for one week, then analyzed again by XRPD.
Pure Pattern B was generated in the antisolvent crystallization with MIBK and heptane. […] The solids were scraped from the XRPD plate and used for simultaneous TGA/DSC analysis. […] After the solids required for the TGA/DSC analysis were transferred to the pan, the remainder of the solids were re-pressed to the XRPD sample plate and analyzed again.

[5] = Dynamic vapor sorption (DVS); format: physicochemical
Experimental: DVS was performed using a DVS Intrinsic 1. The sample (20-25 mg) was loaded into a sample pan, suspended from a microbalance and exposed to a humidified stream of nitrogen gas. The sample was held for a minimum of 5 min at each level and only progressed to the next humidity level if there was <0.002% change in weight between measurements (interval: 60 s) or 240 min had elapsed. The following program was used: • 1. Equilibration at 50% RH • 2. 50% to 2%. (50%, 40%, 30%, 20%, 10%, and 2%) • 3. 2% to 95% (2%, 10%, 20%, 30%, 40%, 50%, 60%, 70%, 80%, 90%, and 95%) • 4. 95% to 2% (95%, 80%, 70%, 60%, 50%, 40%, 30%, 20%, 10%, and 2%) • 5. 2% to 50% (2%, 10%, 20%, 30%, 40%, and 50%)

[6] = Solubility in simulated fluids and water; format: physicochemical; conditions: 37° C.
Experimental: Calibration samples for solubility in simulated fluids were prepared with freebase Compound I.
Solubility in simulated fluids were studied with the mandelate and maleate solids. The simulated fluids FaSSIF (fasted-state intestinal), FaSSGF (fasted-state gastric), and FeSSIF (fed-state intestinal) were removed from the refrigerator, warmed to room temperature, and the pH of each was measured. Between 1.9 and 2.0 mg of each salt was weighed into four vials and 1 mL of each fluid was added, including water. Stir bars (10 mm) were added to the vials and the vials were stirred at 37° C. After 30 mi (mandelate samples) or 1 h (maleate samples), the pH of each solution was measured, then 400 μL of each was removed and syringe filtered with 0.45 µm syringe filters. Approximately 300 μL of the recovered filtrate was diluted 5× with diluent and injected for HPLC analysis. The remainder of the samples in the vials were allowed to stir overnight. After 24 h stirring at 37° C., samples were filtered and diluted as before, and injected for analysis.

CCOc1ccccc1-c1ccc(N2CCN(C(=O)C3(C(F)(F)F)CCC3)C[C@H]2CC)c(C(=O)N[C@@H]2CN3CCC2CC3)n1.O=C(O)/C=C\C(=O)O [Pattern C Maleate, N-[(3S)-1-azabicyclo[2.2.2]octan-3-yl]-6-(2-ethoxyphenyl)-3-[(2R)-2-ethyl-4-[1-(trifluoromethyl)-cyclobutanecarbonyl]piperazin-1-yl]pyridine-2-carboxamide maleate]
Solubility (in words) ([1]; MeOH, EtOH, acetone, THF, ACN, MEK, DMSO, and water containing systems at 8:2 vol. water:organic): freely soluble
solubility ([1]; aqueous with cosolvent or surfactant or cyclodextrin, ACN:water (2:8 vol.), RT): > 200 mg/mL
solubility ([1]; aqueous with cosolvent or surfactant or cyclodextrin, IPA:water (2:8 vol.), RT): > 200 mg/mL
solubility ([1]; aqueous with cosolvent or surfactant or cyclodextrin, acetone:water (2:8 vol.), RT): > 200 mg/mL
solubility ([1]; organic solvent or mixture, ACN, RT): > 200 mg/mL
solubility ([1]; organic solvent or mixture, DMSO, RT): > 200 mg/mL
solubility ([1]; organic solvent or mixture, EtOAc, 50° C.): 34 mg/mL
solubility ([1]; organic solvent or mixture, EtOAc, RT): 21 mg/mL
solubility ([1]; organic solvent or mixture, EtOH, RT): > 200 mg/mL
solubility ([1]; organic solvent or mixture, IPA, 50° C.): > 500 mg/mL
solubility ([1]; organic solvent or mixture, IPA, RT): > 200 mg/mL
solubility ([1]; organic solvent or mixture, IPA:MtBE (1:1 vol.), 50° C.): 36 to 43 mg/mL
solubility ([1]; organic solvent or mixture, IPA:heptane (1:1 vol.), 50° C.): 16 to 19 mg/mL
solubility ([1]; organic solvent or mixture, IPAc, 50° C.): 13 mg/mL
solubility ([1]; organic solvent or mixture, IPAc, RT): 8 mg/mL
solubility ([1]; organic solvent or mixture, MEK, RT): > 200 mg/mL
solubility ([1]; organic solvent or mixture, MIBK, 50° C.): 71 mg/mL
solubility ([1]; organic solvent or mixture, MIBK, RT): 49 mg/mL
solubility ([1]; organic solvent or mixture, MeOAc, 50° C.): > 500 mg/mL
solubility ([1]; organic solvent or mixture, MeOAc, RT): > 200 mg/mL
solubility ([1]; organic solvent or mixture, MeOAc:IPAc (1:1 vol.), 50° C.): 37 to 45 mg/mL
solubility ([1]; organic solvent or mixture, MeOH, RT): > 200 mg/mL
solubility ([1]; organic solvent or mixture, MtBE, 50° C.): 4 mg/mL
solubility ([1]; organic solvent or mixture, MtBE, RT): 4 mg/mL
solubility ([1]; organic solvent or mixture, THF, RT): > 200 mg/mL
solubility ([1]; organic solvent or mixture, acetone, RT): > 200 mg/mL
solubility ([1]; organic solvent or mixture, acetone:heptane (1:1 vol.), 50° C.): 31 to 37 mg/mL
solubility ([1]; organic solvent or mixture, chloroform, RT): > 200 mg/mL
solubility ([1]; organic solvent or mixture, cyclohexane, 50° C.): 3 mg/mL
solubility ([1]; organic solvent or mixture, cyclohexane, RT): < 3 mg/mL
solubility ([1]; organic solvent or mixture, n-heptane, 50° C.): 3 mg/mL
solubility ([1]; organic solvent or mixture, n-heptane, RT): < 3 mg/mL
solubility ([1]; organic solvent or mixture, toluene, 50° C.): 7 mg/mL
solubility ([1]; organic solvent or mixture, toluene, RT): < 3 mg/mL
Behaviour in solvent (in words) ([1]; water and 95:5 vol. water:organic systems): Gels/gums were generated
Change by XRPD after storage ([2]; 7 days): No visible change
Degradation by HPLC purity analysis after storage ([2]; 7 days): no degradation
Change by XRPD after storage ([2]; 11 days): No visible change
Degradation by HPLC purity analysis after storage ([2]; 11 days): no degradation
Stability on storage (in words) ([2]; over a week at 40° C. and 75% RH): stable
Stability after humidity exposure (XRPD, deliquescence) [3]: stable with no observed deliquescence
Form conversion by XRPD at ambient conditions [4]: no observable conversion
Hygroscopicity (in words) ([5]; DVS): moderately hygroscopic
Change by XRPD following the DVS analysis ([5]; after DVS from 2 to 95% RH): Slight changes
Reversible mass gain (DVS) ([5]; from 2 to 95% relative humidity): 9.18 wt. %
Behaviour at high humidity ([5]; high humidity): began to convert to amorphous
solubility at 1 h ([6]; FaSSGF (fasted-state simulated gastric fluid), pH 1.49, fassgf or other biorelevant, thermodynamic from solid, FaSSGF, 1 h): < 2.5 mg/mL
solubility at 24 h ([6]; FaSSGF (fasted-state simulated gastric fluid), pH 1.49, fassgf or other biorelevant, thermodynamic from solid, FaSSGF, 24 h): > 2.5 mg/mL
Sample pH ([6]; FaSSGF (initial pH 1.49), 1 h): 4.66
Sample pH ([6]; FaSSGF (initial pH 1.49), 24 h): 5.08
solubility at 24 h ([6]; FaSSIF (fasted-state simulated intestinal fluid), pH 6.35, thermodynamic from solid, FaSSIF, 24 h): 1.41 mg/mL
solubility at 1 h ([6]; FaSSIF (fasted-state simulated intestinal fluid), thermodynamic from solid, FaSSIF, 1 h): 1.24 mg/mL
Sample pH ([6]; FaSSIF (initial pH 6.35), 1 h): 6.23
Sample pH ([6]; FaSSIF (initial pH 6.35), 24 h): 6.98
Solids recovered from the solubility experiment (appearance, XRPD) ([6]; FaSSIF, after 24 h): oily and appeared as amorphous
solubility at 1 h ([6]; FeSSIF (fed-state simulated intestinal fluid), pH 4.83, thermodynamic from solid, FeSSIF, 1 h): > 2.5 mg/mL
solubility at 24 h ([6]; FeSSIF (fed-state simulated intestinal fluid), pH 4.83, thermodynamic from solid, FeSSIF, 24 h): > 2.5 mg/mL
Sample pH ([6]; FeSSIF (initial pH 4.83), 1 h): 1.50
Sample pH ([6]; FeSSIF (initial pH 4.83), 24 h): 1.89
solubility at 1 h ([6]; thermodynamic from solid, water, 1 h): > 2.5 mg/mL
solubility at 24 h ([6]; thermodynamic from solid, water, 24 h): > 2.5 mg/mL
Sample pH ([6]; water, 1 h): ~6.35
Sample pH ([6]; water, 24 h): 5.50
